Reference: the NIST ThermoML archive (doi:10.1021/je900596d)

Conditions: Liquid; for mass density: Vibrating tube method; for vapor or sublimation pressure: Closed cell (Static) method

FC(F)=C(F)C(F)(F)F [hexafluoropropene]
Conditions	mass density [kg/m3]
263.49 K, 9976.6 kPa	1506.02
283.17 K, 467.7 kPa	1382.09
283.17 K, 472.9 kPa	1382.09
283.17 K, 473.5 kPa	1382.21
283.17 K, 478.6 kPa	1382.26
283.17 K, 483 kPa	1382.29
283.17 K, 491.9 kPa	1382.32
283.17 K, 493.1 kPa	1382.39
283.17 K, 504.9 kPa	1382.43
283.17 K, 526.8 kPa	1382.57
283.17 K, 533.6 kPa	1382.61
283.17 K, 540.4 kPa	1382.7
283.17 K, 548.7 kPa	1382.78
283.17 K, 574 kPa	1382.98
283.17 K, 583 kPa	1382.99
283.17 K, 602 kPa	1383.21
283.17 K, 637 kPa	1383.38
283.17 K, 662.9 kPa	1383.6
283.17 K, 691.4 kPa	1383.74
283.17 K, 716 kPa	1383.92
283.17 K, 731.4 kPa	1384.12
283.17 K, 751.9 kPa	1384.27
283.17 K, 766.8 kPa	1384.29
283.17 K, 790.1 kPa	1384.57
283.17 K, 833.3 kPa	1384.9
283.17 K, 856.3 kPa	1384.98
283.17 K, 882.3 kPa	1385.18
283.17 K, 902.7 kPa	1385.3
283.17 K, 924.8 kPa	1385.58
283.17 K, 945.6 kPa	1385.66
283.17 K, 965.5 kPa	1385.81
283.17 K, 988.4 kPa	1386.02
283.17 K, 1017 kPa	1386.11
283.17 K, 1047.4 kPa	1386.36
283.17 K, 1072.3 kPa	1386.5
283.17 K, 1098.6 kPa	1386.88
283.17 K, 1125.8 kPa	1386.96
283.17 K, 1165.1 kPa	1387.2
283.17 K, 1199.3 kPa	1387.58
283.17 K, 1251 kPa	1387.98
283.17 K, 1286 kPa	1388.12
283.17 K, 1320.8 kPa	1388.36
283.17 K, 1354.8 kPa	1388.62
283.17 K, 1394.7 kPa	1388.89
283.17 K, 1427.8 kPa	1389.18
283.17 K, 1463.5 kPa	1389.43
283.17 K, 1507.4 kPa	1389.74
283.17 K, 1549.2 kPa	1389.92
283.17 K, 1591 kPa	1390.31
283.17 K, 1634.6 kPa	1390.61
283.17 K, 1720.9 kPa	1391.22
283.17 K, 1765.5 kPa	1391.52
283.17 K, 1806 kPa	1391.83
283.17 K, 1849 kPa	1391.99
283.17 K, 1895 kPa	1392.44
283.17 K, 1935.4 kPa	1392.64
283.17 K, 1975.7 kPa	1392.98
283.17 K, 2022.9 kPa	1393.24
283.17 K, 2076.3 kPa	1393.62
283.17 K, 2128.3 kPa	1394
283.17 K, 2174.7 kPa	1394.46
283.17 K, 2219 kPa	1394.73
283.17 K, 2306.2 kPa	1395.23
283.17 K, 2350.5 kPa	1395.59
283.17 K, 2406.1 kPa	1396.02
283.17 K, 2455.4 kPa	1396.26
283.17 K, 2506.6 kPa	1396.64
283.17 K, 2551.5 kPa	1396.81
283.17 K, 2593.9 kPa	1397.25
283.17 K, 2644 kPa	1397.48
283.17 K, 2684 kPa	1397.73
283.17 K, 2734.9 kPa	1398.07
283.17 K, 2785.7 kPa	1398.39
283.17 K, 2848.1 kPa	1398.74
283.17 K, 2900.4 kPa	1399.13
283.17 K, 2951 kPa	1399.5
283.17 K, 3020.7 kPa	1400.01
283.17 K, 3136.8 kPa	1400.76
283.17 K, 3180.2 kPa	1400.96
283.17 K, 3236.8 kPa	1401.44
283.17 K, 3291.9 kPa	1401.74
283.17 K, 3350 kPa	1402.05
283.17 K, 3394.2 kPa	1402.39
283.17 K, 3434.9 kPa	1402.61
283.17 K, 3476.3 kPa	1403.01
283.17 K, 3535.7 kPa	1403.26
283.17 K, 3591.4 kPa	1403.66
283.17 K, 3653.3 kPa	1403.98
283.17 K, 3709.6 kPa	1404.3
283.17 K, 3821.9 kPa	1405.06
283.17 K, 3864.3 kPa	1405.48
283.17 K, 3907.8 kPa	1405.66
283.17 K, 3949 kPa	1405.94
283.17 K, 4020.4 kPa	1406.43
283.17 K, 4078.5 kPa	1406.71
283.17 K, 4127.6 kPa	1407.05
283.17 K, 4182.4 kPa	1407.4
283.17 K, 4239.6 kPa	1407.72
283.17 K, 4293.4 kPa	1408.17
283.17 K, 4409.9 kPa	1408.82
283.17 K, 4465.6 kPa	1409.18
283.17 K, 4516.2 kPa	1409.47
283.17 K, 4620.4 kPa	1410.09
283.17 K, 4676.1 kPa	1410.42
283.17 K, 4728.4 kPa	1410.73
283.17 K, 4783.7 kPa	1411.1
283.17 K, 4835.3 kPa	1411.33
283.17 K, 4889.5 kPa	1411.65
283.17 K, 4943.6 kPa	1412.08
283.17 K, 4996 kPa	1412.33
283.17 K, 5057.6 kPa	1412.68
283.17 K, 5126.3 kPa	1413.1
283.17 K, 5167.5 kPa	1413.34
283.17 K, 5237.5 kPa	1413.76
283.17 K, 5303.9 kPa	1414.14
283.17 K, 5372.7 kPa	1414.61
283.17 K, 5504.1 kPa	1415.44
283.17 K, 5572.6 kPa	1415.73
283.17 K, 5644.7 kPa	1416.12
283.17 K, 5720.2 kPa	1416.66
283.17 K, 5786.5 kPa	1416.98
283.17 K, 5855.5 kPa	1417.42
283.17 K, 5920.9 kPa	1417.74
283.17 K, 5997.2 kPa	1418.2
283.17 K, 6065.1 kPa	1418.58
283.17 K, 6130.5 kPa	1419
283.17 K, 6196 kPa	1419.33
283.17 K, 6260.9 kPa	1419.73
283.17 K, 6326.3 kPa	1420.11
283.17 K, 6398.7 kPa	1420.44

Conditions	vapor or sublimation pressure [kPa]
268.24 K	272
273.24 K	326.8
278.21 K	389
278.22 K	388.6
